Results: patent publication US11787780B2 (CORCEPT THERAPEUTICS INCORPORATED, priority 2020, dated 2023)

These compounds were tested on induction of TAT by dexamethasone in HepG2 cells (assay: Hep G2 TAT assay (inhibition of dexamethasone-induced TAT)). Conditions: challenge of 100 nM dexamethasone, IC50 converted to Ki by Cheng and Prusoff equation.
Type: cell-based, human
Method: Glucocorticoid mediated activation of TAT occurs by transactivation of glucocorticoid response elements in the TAT promoter by glucocorticoid receptor-agonist complex. The following protocol describes an assay for measuring induction of TAT by dexamethasone in HepG2 cells (a human liver hepatocellular carcinoma cell line; ECACC, UK).
TAT activity was measured as outlined in the literature by A. Ah et al., J. Med. Chem., 2004, 47, 2441-2452.
HepG2 cells were cultured using MEME media supplemented with 10% (v/v) foetal bovine serum; 2 mM L-glutamine and 1% (v/v) NEAA at 37° C., 5%/95% (v/v) CO2/air. The HepG2 cells were counted and adjusted to yield a density of 0.125×10^6 cells/ml in RPMI 1640 without phenol red, 10% (v/v) charcoal stripped FBS, 2 mM L-glutamine and seeded at 25,000 cells/well in 200 μl into 96 well, sterile, tissue culture micro titre plates, and incubated at 37° C., 5% CO2 for 24 hours
Growth media was removed and replaced with assay media {RPMI 1640 without phenol red, 2 mM L-glutamine+10 μM forskolin}. Test compounds were screened against a challenge of 100 nM dexamethasone. Compounds were serially half log diluted in 100% (v/v) dimethylsulphoxide from a 10 mM stock.
Test compounds were pre-incubated with cells in micro-titre plates for 30 minutes at 37° C., 5/95 (v/v) CO2/air, before the addition of 100 nM dexamethasone and then subsequently for 20 hours to allow optimal TAT induction.
HepG2 cells were then lysed with 30 μl of cell lysis buffer containing a protease inhibitor cocktail for 15 minutes at 4° C. […] After 2 hours incubation at 37° C. the reaction was terminated by the addition of 15 μl of 10M aqueous potassium hydroxide solution, and the plates incubated for a further 30 minutes at 37° C. The TAT activity product was measured by absorbance at λ 340 nm.
[compound] and fitting the data to a 4 parameter logistic equation. IC50 values were converted to Ki (equilibrium dissociation constant) using the Cheng and Prusoff equation, assuming the antagonists were competitive inhibitors with respect to dexamethasone.

SMILES | Ki [nM]
COc1cc2c(cnn2-c2ccc(F)cc2)cc1C1(Cc2ccc(F)cc2)CCN(S(=O)(=O)C2CC2)C1 (centres unmarked) [Example 220, 5-(1-(cyclopropylsulfonyl)-3-(4-fluorobenzyl)pyrrolidin-3-yl)-1-(4-fluorophenyl)-6-methoxy-1H-indazole] | 24
CCCn1cc(S(=O)(=O)N2CCC(Cc3ccccc3)(c3cc4cnn(-c5ccc(F)cc5)c4cc3Cl)C2)cn1 (centres unmarked) [Example 224, 5-(3-benzyl-1-((1-propyl-1H-pyrazol-4-yl)sulfonyl)pyrrolidin-3-yl)-6-chloro-1-(4-fluorophenyl)-1H-indazole] | 21
Cc1ncc(CC2(c3cc4cnn(-c5ccc(F)cc5)c4cc3C)CCN(S(=O)(=O)c3cnn(C)c3)C2)s1 (centres unmarked) [Example 227, 5-((3-(1-(4-fluorophenyl)-6-methyl-1H-indazol-5-yl)-1-((1-methyl-1H-pyrazol-4-yl)sulfonyl)pyrrolidin-3-yl)methyl)-2-methylthiazole] | 350
O=C1CC(Cc2ccccc2)(c2cc3cnn(-c4ccc(F)cc4)c3cc2Cl)C(=O)N1Cc1ccccc1 (centres unmarked) [Example 228, 1,3-dibenzyl-3-(6-chloro-1-(4-fluorophenyl)-1H-indazol-5-yl)pyrrolidine-2,5-dione] | 28
Cc1cc2c(cnn2-c2ccc(F)cc2)cc1C1(Cc2ccccc2)CCN(C(=O)c2csc(C(F)(F)F)n2)C1 (centres unmarked) [Example 229, (3-benzyl-3-(1-(4-fluorophenyl)-6-methyl-1H-indazol-5-yl)pyrrolidin-1-yl)(2-(trifluoromethyl)thiazol-4-yl)methanone] | 210
COc1cc2c(cnn2-c2ccc(F)cc2)cc1C1(Cc2ccccc2)CCN(C(=O)c2cscn2)C1 (centres unmarked) [Example 230, (3-benzyl-3-(1-(4-fluorophenyl)-6-methoxy-1H-indazol-5-yl)pyrrolidin-1-yl)(thiazol-4-yl)methanone] | 74
Cc1ncc(CC2(c3cc4cnn(-c5ccc(F)cc5)c4cc3C)CCN(C(=O)c3ccccc3)C2)s1 (centres unmarked) [Example 234, (3-(1-(4-fluorophenyl)-6-methyl-1H-indazol-5-yl)-3-((2-methylthiazol-5-yl)methyl)pyrrolidin-1-yl)(phenyl)methanone] | 150
COc1ccc(-n2ncc3cc(C4(Cc5ccccc5)CCN(S(=O)(=O)c5cnn(C)n5)C4)c(C)cc32)cn1 (centres unmarked) [Example 236, 5-(3-benzyl-1-((2-methyl-2H-1,2,3-triazol-4-yl)sulfonyl)pyrrolidin-3-yl)-1-(6-methoxypyridin-3-yl)-6-methyl-1H-indazole] | 81
Cc1cc2c(cnn2-c2cccnc2)cc1C1(Cc2ccccc2)CCN(S(=O)(=O)c2cnn(C)n2)C1 (centres unmarked) [Example 238, 5-(3-benzyl-1-((2-methyl-2H-1,2,3-triazol-4-yl)sulfonyl)pyrrolidin-3-yl)-6-methyl-1-(pyridin-3-yl)-1H-indazole] | 64
Cc1cc(-n2ncc3cc(C4(Cc5ccccc5)CCN(S(=O)(=O)c5cnn(C)n5)C4)c(C)cc32)ccn1 (centres unmarked) [Example 240, 5-(3-benzyl-1-((2-methyl-2H-1,2,3-triazol-4-yl)sulfonyl)pyrrolidin-3-yl)-6-methyl-1-(2-methylpyridin-4-yl)-1H-indazole] | 73
Cc1cc2c(cnn2-c2cccc(C#N)c2)cc1C1(Cc2ccccc2)CCN(S(=O)(=O)c2cnn(C)n2)C1 (centres unmarked) [Example 241, 3-(5-(3-benzyl-1-((2-methyl-2H-1,2,3-triazol-4-yl)sulfonyl)pyrrolidin-3-yl)-6-methyl-1H-indazol-1-yl)benzonitrile] | 44
Cc1cc2c(cnn2-c2ccn(C)c(=O)c2)cc1C1(Cc2ccccc2)CCN(S(=O)(=O)c2cnn(C)n2)C1 (centres unmarked) [Example 244, 4-(5-(3-benzyl-1-((2-methyl-2H-1,2,3-triazol-4-yl)sulfonyl)pyrrolidin-3-yl)-6-methyl-1H-indazol-1-yl)-1-methylpyridin-2(1H)-one] | 840
Cc1cc2c(cnn2-c2cc(C#N)c(=O)n(C)c2)cc1C1(Cc2ccccc2)CCN(S(=O)(=O)c2cnn(C)n2)C1 (centres unmarked) [Example 245, 5-(5-(3-benzyl-1-((2-methyl-2H-1,2,3-triazol-4-yl)sulfonyl)pyrrolidin-3-yl)-6-methyl-1H-indazol-1-yl)-1-methyl-2-oxo-1,2-dihydropyridine-3-carbonitrile] | 190
CCn1cc(-n2ncc3cc(C4(Cc5ccccc5)CCN(S(=O)(=O)c5cnn(C)n5)C4)c(C)cc32)ccc1=O (centres unmarked) [Example 268, 5-(5-(3-benzyl-1-((2-methyl-2H-1,2,3-triazol-4-yl)sulfonyl)pyrrolidin-3-yl)-6-methyl-1H-indazol-1-yl)-1-ethylpyridin-2(1H)-one] | 160
Cc1cc2c(cnn2-c2ccc(=O)n(C(C)C)c2)cc1C1(Cc2ccccc2)CCN(S(=O)(=O)c2cnn(C)n2)C1 (centres unmarked) [Example 269, 5-(5-(3-benzyl-1-((2-methyl-2H-1,2,3-triazol-4-yl)sulfonyl)pyrrolidin-3-yl)-6-methyl-1H-indazol-1-yl)-1-isopropylpyridin-2(1H)-one] | 1300
Cc1cc2c(cnn2-c2ccc(=O)n(C3CC3)c2)cc1C1(Cc2ccccc2)CCN(S(=O)(=O)c2cnn(C)n2)C1 (centres unmarked) [Example 270, 5-(5-(3-benzyl-1-((2-methyl-2H-1,2,3-triazol-4-yl)sulfonyl)pyrrolidin-3-yl)-6-methyl-1H-indazol-1-yl)-1-cyclopropylpyridin-2(1H)-one] | 600
CCCn1cc(S(=O)(=O)N2CCC(Cc3ccccc3)(c3cc4cnn(C5CCC(=O)N(C)C5)c4cc3C)C2)cn1 (centres unmarked) [Example 273, 5-(5-(3-benzyl-1-((1-propyl-1H-pyrazol-4-yl)sulfonyl)pyrrolidin-3-yl)-6-methyl-1H-indazol-1-yl)-1-methylpiperidin-2-one] | 280
Cn1ncc(S(=O)(=O)N2CCC(Cc3ccccc3)(c3cc4cnn(-c5ccc(=O)n(C)c5)c4cc3Cl)C2)n1 (centres unmarked) [Example 277, 5-(5-(3-benzyl-1-((2-methyl-2H-1,2,3-triazol-4-yl)sulfonyl)pyrrolidin-3-yl)-6-chloro-1H-indazol-1-yl)-1-methylpyridin-2(1H)-one] | 54
Cc1cc2c(cnn2-c2ccc(=O)n(C)c2)cc1C1(Cc2ccccc2)CCN(S(=O)(=O)c2cnn(CC(F)(F)F)c2)C1 (centres unmarked) [Example 278, 5-(5-(3-benzyl-1-((1-(2,2,2-trifluoroethyl)-1H-pyrazol-4-yl)sulfonyl)pyrrolidin-3-yl)-6-methyl-1H-indazol-1-yl)-1-methylpyridin-2(1H)-one] | 44
Cc1cc2c(cnn2-c2ccc(=O)n(C)c2)cc1C1(Cc2ccccc2)CCN(S(=O)(=O)c2cnn(C3CCC3)c2)C1 (centres unmarked) [Example 279, 5-(5-(3-benzyl-1-((1-cyclobutyl-1H-pyrazol-4-yl)sulfonyl)pyrrolidin-3-yl)-6-methyl-1H-indazol-1-yl)-1-methylpyridin-2(1H)-one] | 50
Cc1cc2c(cnn2-c2ccc(=O)n(C)c2)cc1C1(Cc2ccccc2)CCN(S(=O)(=O)c2cnn(C(F)F)c2)C1 (centres unmarked) [Example 280, 5-(5-(3-benzyl-1-((1-(difluoromethyl)-1H-pyrazol-4-yl)sulfonyl)pyrrolidin-3-yl)-6-methyl-1H-indazol-1-yl)-1-methylpyridin-2(1H)-one] | 42
COCCn1cc(S(=O)(=O)N2CCC(Cc3ccccc3)(c3cc4cnn(-c5ccc(=O)n(C)c5)c4cc3C)C2)cn1 (centres unmarked) [Example 281, 5-(5-(3-benzyl-1-((1-(2-methoxyethyl)-1H-pyrazol-4-yl)sulfonyl)pyrrolidin-3-yl)-6-methyl-1H-indazol-1-yl)-1-methylpyridin-2(1H)-one] | 75
Cc1cc2c(cnn2-c2ccc(=O)n(C)c2)cc1C1(Cc2ccccc2)CCN(S(=O)(=O)c2cn(C)nc2C)C1 (centres unmarked) [Example 282, 5-(5-(3-benzyl-1-((1,3-dimethyl-1H-pyrazol-4-yl)sulfonyl)pyrrolidin-3-yl)-6-methyl-1H-indazol-1-yl)-1-methylpyridin-2(1H)-one] | 120
Cc1cc(S(=O)(=O)N2CCC(Cc3ccccc3)(c3cc4cnn(-c5ccc(=O)n(C)c5)c4cc3C)C2)n(C)n1 (centres unmarked) [Example 283, 5-(5-(3-benzyl-1-((1,3-dimethyl-1H-pyrazol-5-yl)sulfonyl)pyrrolidin-3-yl)-6-methyl-1H-indazol-1-yl)-1-methylpyridin-2(1H)-one] | 64
Cc1cc2c(cnn2-c2ccc(=O)n(C)c2)cc1C1(Cc2ccccc2)CCN(S(=O)(=O)c2cnn(C)c2C)C1 (centres unmarked) [Example 284, 5-(5-(3-benzyl-1-((1,5-dimethyl-1H-pyrazol-4-yl)sulfonyl)pyrrolidin-3-yl)-6-methyl-1H-indazol-1-yl)-1-methylpyridin-2(1H)-one] | 58
Cc1cc2c(cnn2-c2ccc(=O)n(C)c2)cc1C1(Cc2ccccc2)CCN(S(=O)(=O)c2nccn2C)C1 (centres unmarked) [Example 285, 5-(5-(3-benzyl-1-((1-methyl-1H-imidazol-2-yl)sulfonyl)pyrrolidin-3-yl)-6-methyl-1H-indazol-1-yl)-1-methylpyridin-2(1H)-one] | 82
